Here are results for 87 molecules from PubChem BioAssay AID2305 (GlaxoSmithKline (GSK), 2010).

The assay has as its system P. falciparum 3D7 growth, pLDH absorbance. The experiment in a line: blood-stage malaria parasite growth potency – strain 3D7, dose response (AID 2305).
Consider `CCCCN=C(N)Nc1ccc(OCCCOc2ccc(NC(N)=NCCCC)cc2)cc1`, for which the IC50 (commonly the concentration at which inhibition is half-maximal) came out at 160 nM.
Then `CCCNCc1ccc(-c2ccc(CN(CCOC)C(=O)CC3CCCC3=O)cc2)nc1` (configuration not stated), with 1240 nM; and `O=C(Cc1cccnc1)N(Cc1ccc(-c2ccc(CNCc3cccnc3)cn2)cc1)C1CCN(Cc2ccccc2)CC1`, with 800 nM; and `CCCNCc1ccc(-c2ccc(CNC3Cc4ccccc4C3)cc2)nc1`, with 850 nM.
To `O=C(Nc1nc2cc(S(=O)(=O)NCc3ccc(Cl)c(Cl)c3)ccc2n1CCCn1ccnc1)c1ccc(Cl)cc1` belongs 730 nM; to `COCCSc1nc2scc(C)c2c(=O)n1Cc1cccc(OC)c1`, 910 nM.
`O=C(Nc1ccc2c(c1)CCC2)N[C@H]1CCN(Cc2ccc(OCCCN3CCCCC3)cc2)C1` returned an IC50 of 860 nM.
On to `CN1CCN(c2ccnc3ccc(NC(=O)Nc4ccc(-c5ccncc5)c5ccccc45)cc23)CC1`, for which the half-inhibitory concentration (IC50) is 310 nM.
In turn, `CCC(C)CC(=O)Nc1ccc(OC)c(S(=O)(=O)N[C@@H]2CCN(C#N)C2)c1` (some centres not stated) displayed a concentration for half-maximal inhibition (IC50) of 1490 nM.
Then `O=C(Nc1ccc(Cl)c(Cl)c1)N(Cc1ccccc1Br)C1CCNCC1`, with 1030 nM; and `CC(C)(C)c1cc(C(=O)Nc2cccnc2)cc(C(=O)Nc2cccnc2)c1`, with 760 nM.
Then `S=C(Nc1cccc(Cl)c1)NC1CCN(c2ccnc3cc(Cl)ccc23)C1` (configuration not stated), with 150 nM.
Then `O=C(Nc1ccc(Br)cc1)N(CCN1CCOCC1)CC(O)COc1ccc(Cl)c(F)c1` (configuration not stated), with 1040 nM; and `O=C(Nc1ccc(Br)cc1)Nc1ccc(Cn2ncc(N3CCCNCC3)c(Cl)c2=O)cc1`, with 1140 nM; and `CS(=O)(=O)CCOCc1ccc(-c2ccc3ncnc(Nc4ccc(OCc5cccc(F)c5)c(Cl)c4)c3c2)o1`, with 800 nM.
Molecule `O=C(Nc1cccc(-c2cccc(-c3nc4ccc(C(F)(F)F)cc4[nH]3)c2)c1)c1ccoc1` had an IC50 of 280 nM.
To `CN(C)CCCn1c(N)c(-c2nc3ccccc3[nH]2)c2nc(C#N)c(C#N)nc21` belongs 590 nM; to `Cc1ccoc1C(=O)Nc1ccc(-c2cccc(-c3nc4c(C)cccc4[nH]3)c2)cc1`, 730 nM.
Then `O=C(/C=C/c1ccc(Cl)c(Cl)c1)N1CCC(CN2CCC(c3c(-c4ccc(F)cc4)[nH]c4ccccc34)CC2)CC1`, with 170 nM.
Then `O=c1[nH]c(NCCCCCN2CCC(c3c[nH]c4ccccc34)CC2)ncc1Cc1ccc(Cl)c(Cl)c1`, with 970 nM.
For `COc1ccc2ncc(F)c(CCN3CCC(NCc4cc(Br)c5c(c4)OCCO5)CC3)c2n1`, the IC50 amounted to 190 nM.
To `CC[C@H]1CN2CC[C@H]1C[C@@H]2[C@@H](O)c1ccnc2ccc(OC)cc12` belongs 120 nM; to `O=C(Nc1ccc(C(F)(F)F)cc1)c1ccc(S(=O)(=O)NC2CCN(Cc3ccccc3)C2)cc1` (configuration not stated), 620 nM; to `CN1CCN(CCCNCc2cccc(Nc3nccc(Nc4ccc(Oc5ccccc5)cc4)n3)c2)CC1`, 760 nM.
Then `CCCCCN1CCCC(CNS(=O)(=O)c2ccc(C(=O)Nc3ccc(C(F)(F)F)cc3)cc2)C1` (configuration not stated), with 920 nM; and `CC(=O)N/N=C/[C@H](CCc1ccccc1)NC(=O)[C@H](CC(C)C)NC(=O)c1ccc(OCCN2CCOCC2)cc1`, with 220 nM.
Then `CCCC(=O)NC(c1cccs1)c1cc(Cl)c2cccnc2c1O` (configuration not stated), with 850 nM; and `CC(C)(C)c1ccc(CN2CCC(CNC(=O)c3cc(-c4cccc(Cl)c4)cs3)C2)cc1` (configuration not stated), with 1160 nM.
The molecule `CCOc1cc(CC)ccc1C1CCN(CCN2CCC(NC(=O)c3ccc(-c4ccc(C(C)=O)cc4)cc3)CC2)CC1` returned an IC50 of 230 nM.
To `Cc1[nH]c(C)c(-c2ccc(CCc3ccc(F)cc3F)cc2)c(=O)c1Br` belongs 10 nM; to `Cc1ccc(F)c(OCC2CCCN(c3ccc(C(=O)NC4CC4)cn3)C2)c1` (configuration not stated), 770 nM.
To `COc1ccc(OC)c2c1CCN(CCN1CCC(C(=O)Nc3ccc(C(=O)Nc4ccc(Cl)cc4)cc3)CC1)C2` belongs 580 nM; to `COc1ccc2c(NN=Cc3cccnc3)ccnc2c1`, 680 nM.
To `O=C(NC1CCCCC1)N(Cc1ccc(-c2cccc(CNC3CCCC3)c2)cc1)C1CCN(Cc2ccccc2)CC1` belongs 780 nM; to `Cc1cc(C(=O)NC2CCN(CC3(c4ccccc4)CCCCC3)CC2)on1`, 260 nM; to `NC(=O)c1cccc(C(=O)Nc2cccc(-c3cccc(-c4nc5ccc(C(F)(F)F)cc5[nH]4)c3)c2)c1`, 130 nM.
In turn, `Cc1cc(N2CCN(CC3CCCCC3)CC2)nc(Nc2ccc(Br)cc2)n1` had an IC50 of 1090 nM.
To `COc1ccc(C(=O)Nc2ccc3oc(-c4ccc(C(F)(F)F)cc4)cc3c2)cc1CCCN(C)C` belongs 700 nM; to `Cc1cc(N2CCCC2)nc(Nc2ccc(NC(=O)Cc3ccccc3)cc2)n1`, 610 nM.
In the case of `Oc1ccc(-c2nc(-c3ccc4oc5ccc(-c6[nH]c(-c7ccc(O)cc7)nc6-c6ccccc6)cc5c4c3)c(-c3ccccc3)[nH]2)cc1`, the IC50 is 1110 nM.
To `OC(CNCCc1ccccc1)Cn1c2ccc(Cl)cc2c2cc(Cl)ccc21` (configuration not stated) belongs 730 nM; to `O=[N+]([O-])c1ccc(C=NNc2nc3ccccc3[nH]2)cc1`, 280 nM.
Then `CCOc1ccnc(=O)[nH]1`, with 460 nM.
Then `OCCc1ccc(Nc2nccc(-c3nnc4ccccn34)n2)cc1`, with 900 nM; and `c1ccc(CN2CCC(NCc3ccc(-c4cccc(CNC5CCCC5)c4)cc3)CC2)cc1`, with 340 nM.
For `CC(CCc1ccc(OCc2ccccc2)cc1)NCC(O)c1ccccc1` (configuration not stated), the IC50 came out at 1100 nM.
To `COc1cc(F)c2nccc([C@@H](O)CN3CCC(NCc4cc5c(cc4F)OCCO5)CC3)c2c1` belongs 680 nM.
Then `O=c1cc(NCCCCNCc2cccc(C(F)(F)F)c2)[nH]c2ccccc12`, with 790 nM; and `COc1ccc2nc(C)cc(NC3Cc4ccccc4C3)c2c1`, with 840 nM; and `Cc1cc(NN=Cc2cccc(F)c2)c2ccc(F)cc2n1`, with 230 nM.
To `CN(Cc1cc(C(F)(F)F)cc(C(F)(F)F)c1)C(=O)C(Cc1ccc(F)cc1)C1CCCNC1` (configuration not stated) belongs 1540 nM; to `CC1CN(c2cc(=O)n(Cc3cccc(NC(=O)Nc4ccc(-c5ccccc5)cc4)c3)cn2)CC(C)N1` (configuration not stated), 400 nM; to `O=C(NC1CCN(c2ccc(F)cc2[N+](=O)[O-])CC1)c1cccs1`, 670 nM.
The molecule `CC(=O)Nc1ccc(C#Cc2ccc(-c3c(C)[nH]c(C)c(Cl)c3=O)cc2)cc1` showed an IC50 of 460 nM.
To `O=C(c1cnn(-c2ccccc2)c1C(F)(F)F)N1CCN(c2ccnc3cc(Cl)ccc23)CC1` belongs 530 nM.
To `CC(C)N1CCC(N(Cc2ccc(-c3ccc(C(F)(F)F)cc3)cc2)C(=O)Cn2c(SCc3cccc(F)c3F)nc(=O)c3ccccc32)CC1` belongs 1050 nM; to `COc1cc(Cc2cnc(N)nc2N)cc(OCCCc2cc(OCc3ccccc3)no2)c1OC`, 1870 nM.
Then `CCCc1nc2c(N3CC(NC(=O)/C=C/c4ccccc4)C3)cccc2n1C1CC1`, with 550 nM; and `CC(=O)Nc1nc(C(=O)Nc2ccc(-c3ccc(-c4nc5c(C)cccc5[nH]4)cc3)cc2)cs1`, with 180 nM; and `Cc1cc(NN=Cc2cccc([N+](=O)[O-])c2)c2cc(F)ccc2n1`, with 590 nM.
The molecule `CC(C)C[C@H](NC(=O)OC(C)(C)C)C(=O)Nc1ccc(Cc2ccc(NC(=O)[C@H](CC(C)C)NC(=O)OC(C)(C)C)cc2)cc1` came in with an IC50 of 760 nM.
Take `NCC1(c2nc(-c3ccc(Cl)c(O)c3)c(-c3ccncc3)[nH]2)CCCCC1`: the IC50 came out at 740 nM.
Molecule `Cc1nc(-c2ccc(C(F)(F)F)cn2)sc1C(=O)N1CCc2cc3nccc(N4CCN5CCC[C@H]5C4)c3cc21` yielded an IC50 of 780 nM.
`c1cncc(CCNCc2ccc(-c3ccc(-c4nc5ccccc5[nH]4)s3)cc2)c1`: the half-maximal inhibitory concentration (IC50) stood at 210 nM.
Then `O=C(Nc1ccc(N2CCCN(Cc3cccc(F)c3)CC2)cc1)c1ccc(F)cc1`, with 840 nM; and `Cc1cc(NN=Cc2ccccc2F)c2cc(C(F)(F)F)ccc2n1`, with 430 nM; and `N#Cc1ccc(N2CCN(Cc3ccc(-c4ccc(-c5nc6ccccc6[nH]5)s4)cc3)CC2)nc1`, with 1080 nM.
To `COc1cc(N(Cc2ccc(F)cc2)C(=O)c2ccc(-c3ccccc3)cc2)ccc1OCCN1CCCC1` belongs 830 nM; to `CCCCNCc1ccc(-c2nc(CN(Cc3ccc(Cl)c(Cl)c3)C(=O)CN(C)C)cs2)cc1`, 800 nM.
Then `OCCN1CCN(Cc2ccc(-c3cccc(-c4nc5ccc(C(F)(F)F)cc5[nH]4)c3)cc2)CC1`, with 640 nM.
The molecule `CCC(C)c1ccc(O)c(NC(=O)c2cncc(Br)c2)c1` (configuration not stated) registered an IC50 of 800 nM.
`Clc1ccc(Nc2nc3nonc3nc2Nc2ccc(Cl)c(Cl)c2)cc1` had an IC50 of 650 nM.
`O=C(Nc1cccc(CN2CCCN(Cc3cccc(Cl)c3)CC2)c1)c1ccc(Cl)c(Cl)c1` had an IC50 of 990 nM.
Then `Cc1cccc2[nH]c(-c3cccc(-c4cccc(NC(=O)c5cnc[nH]5)c4)c3)nc12`, with 260 nM.
Then `CC1CCc2sc(-c3nnc(SC(C)C(=O)N4CCCC4)o3)cc2C1` (configuration not stated), with 880 nM; and `CN(CC(=O)Nc1ccc(F)c(F)c1F)c1ncnc2sc(-c3ccccc3)cc12`, with 870 nM.
On to `OC1(c2ccc(Br)cc2)CCN(C2CCN(Cc3ccccc3)CC2)CC1`, for which the IC50 was found to be 600 nM.
Then `O=C(C=Cc1ccc(Cl)c(Cl)c1)NCCCCCN1CCC(CCCNS(=O)(=O)c2cccc(C(F)(F)F)c2)CC1`, with 480 nM; and `COc1ccc(Br)cc1C1Nc2ccc3ccccc3c2C2=C1C(=O)CC(c1ccccc1)C2` (configuration not stated), with 590 nM; and `CCCN(CC1CC1)c1ncc(-c2cccc(CNCc3ccccc3O)c2)cn1`, with 700 nM.
For the molecule `COc1ccc(-c2csc3ncnc(Cl)c23)cc1`, the IC50 was 780 nM.
For `COc1ccc2nccc([C@@H](O)CN3CCC(NC/C=C/c4cccnc4)CC3)c2c1`, the IC50 is 620 nM.
Then `CC(Nc1nncc(-c2cccc(F)c2)n1)c1ccc(F)cc1` (configuration not stated), with 790 nM.
To `COc1ccc(C(=O)N2CCC3(CC2)C(=O)N(CC(=O)NC2CCCCC2)CN3c2ccccc2)c(OC)c1` belongs 220 nM; to `c1ccc2c(c1)CN(CC1CC1)CC1(CCN(Cc3c[nH]c4cnccc34)CC1)O2`, 900 nM; to `CC(C)c1ccc(Nc2nc(NCCc3cnc[nH]3)nc(NCc3ccccc3)n2)cc1`, 690 nM.
Take `O=C(Nc1cccc([N+](=O)[O-])c1)N(Cc1ccc(Cl)c(Cl)c1)C1CCNCC1`: the IC50 was determined as 720 nM.
